Results on 9 molecules are retold here after patent publication US20160274087A1, “SCREENING ASSAY FOR AGENTS THAT INFLUENCE BETA CELL NUMBER AND/OR PHENOTYPE” (VRIJE UNIVERSITEIT BRUSSEL, priority 2013, published 2016).

The subject of assay [1] is rat beta cells. As to the kind of experiment: Beta cell DNA synthesis/proliferation by EdU (and BrdU) incorporation, incl. LOPAC screen. The assay is classed as cell-based. Particulars: for effect on 6MP induced DNA-synthesis and increase in cell numbers: JSH-23 10 μM, Bay11-7085 5 μM. The method, then:
(§1) On day 1, 9 and 15 of culture, total numbers of living beta cells per well were determined by semi-automatic cell count, after Hoechst 33342 (Ho) and propidium iodide (PI) staining. Numbers of living beta cells were obtained by subtracting the PI-positive cell numbers from the Ho-positive cell numbers, and correcting for the percent insulin-negative cells, as determined following insulin-immunofluorescence staining. They were expressed as percent of the numbers on day 1. Each condition was also evaluated for increases in the percentage of proliferating beta cells (incorporating the thymidine-analogue 5-ethynyl-2′-deoxyuridine, EdU; 100 μmol/l). To detect beta cells that underwent two successive cycles, cells were sequentially exposed to two different thymidine-analogs, first EdU from day 3 to 6, and then BrdU (100 μmol/l) from day 7 to 10, with a 24-hour label-free period in between. EdU-positive (EdU^+) nuclei were detected with the Click-iT Assay kit (Invitrogen), while BrdU-positive (BrdU^+) nuclei were identified with anti-BrdU antibody.
Freshly purified beta cells were cultured in control medium for 24 h prior to the addition of the LOPAC test compounds (day 1). The culture medium was refreshed on day 3 and the cells were then cultured further with 5-ethynyl-2′-deoxyuridine (EdU; 10 μM) up to day 6. Cell viability and percentage EdU incorporation were quantified after imaging and image analysis using the BD Pathway Bioimager, as described before (Assefa et al., 2014). To test the significance of compound effect on beta cell proliferation, average Z-score for each compound was calculated and a cut-off for potential positive hits was set at a Z-score of greater than three standard deviations. Thus, a compound is considered a hit only if it increases the percent EdU incorporation to above three standard deviation of the plate-averaged percent EdU incorporation.
(§2) Sorted beta cells were seeded in 384-well or 6-well plates coated with 804G matrix, and kept in culture for up to 15 days at 37° C. 5% CO2 using Ham F10 supplemented with 1 mM L-glutamine, 0.1 mg/ml streptomycin, 0.075 mg/ml penicillin, 50 μM of isobutyl-1-methylxanthine (IBMX) at 10 mM D-glucose with and without synthetic GCs (6 methyl-prednisolone (6MP), dexamethasone (DEX), GR-modulators (compound A (CPA), mifepristone (MIF), and NFκB inhibitors (JSH-23 en Bay11-7085). Total cell number and beta cell viability was evaluated after incubation with Hoechst 33342 and propidium iodide. All chemicals were from Sigma Life Sciences or Merck. Quantification of cell numbers and analysis of beta-cell viability was done using the Pathway Bioimager (BD Biosciences) and using IPlab and Attovision software for background subtraction as described prior (Assefa et al., 2014). Replicating beta cells were quantified after 24 or 72 hrs incubation with 5-ethynyl-2′-deoxyuridine (EdU, a thymidine analog) using the ClickIT EDU Alexa Fluor assay (Invitrogen). EdU-positive cells were expressed as percentage of total cell number.

In assay [2] the test system is rat beta cells. As to the kind of experiment: Number of living beta cells in culture (Hoechst 33342/propidium iodide whole-well imaging counts; expansion assay). Type of assay: cell-based. Particulars: for Number of Living Cells on Day 15 (% of Day 1): control 101 ± 7; for concentration giving maximal inhibition / prevention of DEX-stimulated increase of beta cell numbers: with 0.01 μM DEX, d1 to d15. The method, then:
Beta cells were FACS-purified from islet-cell enriched suspensions (Pipeleers et al., 1985) prepared from neonatal (2-3 days-old) and adolescent or adult (8 or 40-week-old, male) Wistar rats (Janvier Bioservices, France); their purity was, respectively 70-75% and over 90%. Sorted cells were counted in a hemocytometer, seeded (day 0) and cultured for up to 15 days in serum-free Ham's-F10 medium at 5, 10 or 20 mmol/l glucose, supplemented with 2 mmol/l L-glutamine, 50 μM 3-isobutyl-1-methylxanthine, 0.5% Albumax-I, penicillin (100 U/ml) and streptomycin (0.1 mg/ml). The 10 mmol/l glucose condition is known to maintain beta cell survival over 9-days (Ling et al., 1994; Ling and Pipeleers, 1994). Medium and cells were retrieved after selected culture periods and assayed for insulin content; data were expressed as a function of the number of living beta cells that was determined in parallel wells.
as §1
Absolute number of cells was determined by whole-well imaging using the BD-PathwayBioimager855 (BD-Biosciences). IPLab and AttoVision software packages (BD-Biosciences) were used for image background subtraction, segmentation and quantification.
Experimental procedures for isolation of beta cells from neonatal (2-3 days old) and adult (8 or 40 week old, male) Wistar rats (Janvier Bioservices, France) and analysis of their number, viability and proliferation activity in culture have been described before (Assefa et al., 2014). Sorted beta cells were seeded in 804G matrix-coated plates (designated as day 0) and the numbers and viability of seeded cells at the start of all experiments were determined on day 1 (24 h after seeding). The cells were cultured in control medium, which is a serum-free Ham's F10 medium supplemented with 2 mM L-glutamine, 50 μM 3-isobutyl-1-methylxanthine, 0.5% Albumax I, penicillin (100 U/ml), streptomycin (0.1 mg/ml) and, unless indicated otherwise, 10 mM glucose.
as §2, with “2014).” for “2014). Replicating beta cells were quantified after 24 or 72 hrs incubation with 5-ethynyl-2′-deoxyuridine (EdU, a thymidine analog) using the ClickIT EDU Alexa Fluor assay (Invitrogen). EdU-positive cells were expressed as percentage of total cell number.”

Assay [3] concerns GR trans-repression and trans-activation targets, cell cycle genes and beta cell phenotype markers. Kind of assay: Q-PCR of mRNA levels in cultured beta cells. The assay is classed as cell-based, rat. Particulars: for effect on ICAM1 mRNA levels: NFkB-inhibitors, relative to vehicle control.
Setting [4] is: 9 days culture, 1 μM 6MP, 1 μM MIF, 0.5 μM CPA, vehicle = 1.0.
The mark [5] stands for this setting: control medium + compound 1 μM, 15 days.

For `COC(=O)C1=C(C)NC(C)=C([N+](=O)[O-])C1c1ccccc1C(F)(F)F` (racemic) [(±)-Bay K 8644], in the assay with rat beta cells [1] (1 μM, adult rat beta cells), the “hit status in LOPAC screen based on Z-scores” value was “potential inducers of beta cell proliferation”.
On to `C[C@]12CCC(=O)C=C1CC[C@@H]1[C@@H]2[C@@H](O)C[C@]2(C=O)[C@@H](C(=O)CO)CC[C@@H]12` [Aldosterone, aldosterone], for which, in the assay with rat beta cells [2] (control medium + compound 0.1 μM, 15 days), the “Number of Living Cells on Day 15 (% of Day 1)” value (“Number … (% of Day 1)” for short) was 112 ± 5 % of Day 1.
Take `CC(C)(C)c1ccc(S(=O)(=O)/C=C/C#N)cc1` [Bay11-7085]: in assay [3], the “effect on ICAM1 mRNA levels” value was “suppressing”. For the same molecule, in the assay with rat beta cells [1], the “effect on 6MP induced DNA-synthesis and increase in cell numbers” value is “does not inhibit”.
Take `CNCC(Cl)c1ccc(OC(C)=O)cc1.Cl` (stereo not drawn) [CPA]: in assay [3] (setting [4]), the “CDK4 mRNA level (ΔΔCt values relative to basal vehicle control)” value came out at 1.1 ± 0.2, the “CXCL11 mRNA level (ΔΔCt values relative to basal vehicle control)” value came out at 1.1 ± 0.3, the “Cyclin B1 mRNA level (ΔΔCt values relative to basal vehicle control)” value is reported as 0.8 ± 0.4 and the “Cyclin B2 mRNA level (ΔΔCt values relative to basal vehicle control)” value is reported as 0.5 ± 0.1^2. For the same molecule, in assay [3] (setting [4]), the “Cyclin E1 mRNA level (ΔΔCt values relative to basal vehicle control)” value turned out to be 1.0 ± 0.1, the “CyclinD1 mRNA level (ΔΔCt values relative to basal vehicle control)” value is reported as 0.7 ± 0.1^1, the “DLK1 mRNA level (ΔΔCt values relative to basal vehicle control)” value was determined as 1.4 ± 0.4 and the “FKBP4 mRNA level (ΔΔCt values relative to basal vehicle control)” value was determined as 0.9 ± 0.2. Besides, in assay [3] (setting [4]), the “FKBP5 mRNA level (ΔΔCt values relative to basal vehicle control)” value was determined as 1.3 ± 0.1, the “GDF11 mRNA level (ΔΔCt values relative to basal vehicle control)” value came to 0.7 ± 0.1, the “ICAM1 mRNA level (ΔΔCt values relative to basal vehicle control)” value was 0.3 ± 0.1^3 and the “MKP1 mRNA level (ΔΔCt values relative to basal vehicle control)” value turned out to be 2.7 ± 1.1. Besides, in assay [3] (setting [4]), the “MafA mRNA level (ΔΔCt values relative to basal vehicle control)” value is 0.4 ± 0.1^3, the “MafB mRNA level (ΔΔCt values relative to basal vehicle control)” value came out at 1.4 ± 0.5, the “NNAT mRNA level (ΔΔCt values relative to basal vehicle control)” value was determined as 0.6 ± 0.1 and the “NPY mRNA level (ΔΔCt values relative to basal vehicle control)” value was determined as 1.1 ± 0.3. For the same molecule, in assay [3] (setting [4]), the “NR3C1 mRNA level (ΔΔCt values relative to basal vehicle control)” value amounted to 1.0 ± 0.1, the “Pdx1 mRNA level (ΔΔCt values relative to basal vehicle control)” value stood at 0.8 ± 0.1 and the “TRH mRNA level (ΔΔCt values relative to basal vehicle control)” value is 1.2 ± 0.6. Besides, the “change of beta cell numbers between day 1 and 15” value with rat beta cells [2] (6MP 1 μM, DEX 0.01 μM, CPA 0.5 μM) is listed as “no change of beta cell numbers”. The “concentration giving maximal inhibition / prevention of DEX-stimulated increase of beta cell numbers” value with rat beta cells [2] came to 0.5 µM.
Regarding `Cc1ccc(NCCCc2ccccc2)c(N)c1` [JSH-23], the “effect on ICAM1 mRNA levels” value in assay [3] is “suppressing”. For the same molecule, the “effect on 6MP induced DNA-synthesis and increase in cell numbers” value in the assay with rat beta cells [1] was “does not inhibit”.
With `CC#C[C@]1(O)CC[C@H]2[C@@H]3CCC4=CC(=O)CCC4=C3[C@@H](c3ccc(N(C)C)cc3)C[C@@]21C` [MIF, mifepristone], in assay [3] (setting [4]), the “CDK4 mRNA level (ΔΔCt values relative to basal vehicle control)” value is on record as 1.3 ± 0.2, the “CXCL11 mRNA level (ΔΔCt values relative to basal vehicle control)” value is on record as 1.5 ± 0.6, the “Cyclin B1 mRNA level (ΔΔCt values relative to basal vehicle control)” value stood at 1.0 ± 0.3 and the “Cyclin B2 mRNA level (ΔΔCt values relative to basal vehicle control)” value is given as 0.6 ± 0.1^1. Further, in assay [3] (setting [4]), the “CyclinD1 mRNA level (ΔΔCt values relative to basal vehicle control)” value was found to be 1.0 ± 0.1, the “DLK1 mRNA level (ΔΔCt values relative to basal vehicle control)” value amounted to 0.9 ± 0.2, the “FKBP4 mRNA level (ΔΔCt values relative to basal vehicle control)” value is 0.7 ± 0.2 and the “FKBP5 mRNA level (ΔΔCt values relative to basal vehicle control)” value stood at 0.7 ± 0.2. In assay [3] (setting [4]), the “MKP1 mRNA level (ΔΔCt values relative to basal vehicle control)” value was 1.3 ± 0.0, the “MafA mRNA level (ΔΔCt values relative to basal vehicle control)” value was 1.1 ± 0.3, the “MafB mRNA level (ΔΔCt values relative to basal vehicle control)” value came to 0.6 ± 0.2 and the “NPY mRNA level (ΔΔCt values relative to basal vehicle control)” value is reported as 0.8 ± 0.0. Further, in assay [3] (setting [4]), the “NR3C1 mRNA level (ΔΔCt values relative to basal vehicle control)” value worked out at 1.1 ± 0.1 and the “Pdx1 mRNA level (ΔΔCt values relative to basal vehicle control)” value is given as 1.1 ± 0.3. In addition, in the assay with rat beta cells [2] (MIF 1 μM), the “effect on 6MP/DEX-stimulated increase of cell numbers” value is reported as “inhibited”. Besides, the “Number … (% of Day 1)” value in the assay on rat beta cells [2] (setting [5]) is recorded as 104 ± 5 % of Day 1. Moreover, the “concentration giving maximal inhibition / prevention of DEX-stimulated increase of beta cell numbers” value in the assay with rat beta cells [2] amounted to 0.1 µM.
Regarding `CC(=O)S[C@@H]1CC2=CC(=O)CC[C@]2(C)[C@H]2CC[C@@]3(C)[C@@H](CC[C@@]34CCC(=O)O4)[C@H]12` [Spironolactone, spironolactone], in the assay with rat beta cells [2] (setting [5]), the “Number … (% of Day 1)” value is 105 ± 5 % of Day 1.
On to `O=C(CO)[C@@H](O)[C@@H](O)[C@H](O)[C@H](O)CO` [mannoheptulose], for which the “baseline and GC-induced proliferation of beta cells” value with rat beta cells [1] (competitive inhibition of GK, data not shown) is “reduces”.

B1: GDF11: secretory factor added to beta cell culture (10 nM) (protein, UniProt O95390 299-407, looked up)
Growth/differentiation factor …: NLGLDCDEHSSESRCCRYPLTVDFEAFGWDWIIAPKRYKANYCSGQCEYMFMQKYPHTHLVQQANPRGSAGPCCTPTKMSPINMLYFNDKQQIIYGKIPGMVVDRCGCS
In the case of B1, the “effect on cell numbers in combination with 6MP” value with rat beta cells [2] (15 days, 6MP 1 μM, GDF11 10 nM, TRH 5 nM) is on record as “suppressed proliferation”. In the assay with rat beta cells [2] (15 days, DLK1 0.5 μM, GDF11 10 nM, TRH 5 nM), the “effect on cell numbers under basal conditions” value is reported as “modest increase of cell numbers”.
